Drawing on ChEMBL document CHEMBL6153058, “Pyrrolopyrazine Compounds as ERK5 Inhibitors for Treating Cancer” (ACS Med Chem Lett, 2025), this text covers IC50 for two molecules.

In this assay the target is Mitogen-activated protein kinase 7 (Homo sapiens, UniProt Q13164). The assay is described as follows: Inhibition of ERK5 in human SN12C cells assessed as reduction in luminescence signal by bright glo reagent based luminescent cell assay.
Sequence of Mitogen-activated protein kinase 7 (Q13164 whole entry): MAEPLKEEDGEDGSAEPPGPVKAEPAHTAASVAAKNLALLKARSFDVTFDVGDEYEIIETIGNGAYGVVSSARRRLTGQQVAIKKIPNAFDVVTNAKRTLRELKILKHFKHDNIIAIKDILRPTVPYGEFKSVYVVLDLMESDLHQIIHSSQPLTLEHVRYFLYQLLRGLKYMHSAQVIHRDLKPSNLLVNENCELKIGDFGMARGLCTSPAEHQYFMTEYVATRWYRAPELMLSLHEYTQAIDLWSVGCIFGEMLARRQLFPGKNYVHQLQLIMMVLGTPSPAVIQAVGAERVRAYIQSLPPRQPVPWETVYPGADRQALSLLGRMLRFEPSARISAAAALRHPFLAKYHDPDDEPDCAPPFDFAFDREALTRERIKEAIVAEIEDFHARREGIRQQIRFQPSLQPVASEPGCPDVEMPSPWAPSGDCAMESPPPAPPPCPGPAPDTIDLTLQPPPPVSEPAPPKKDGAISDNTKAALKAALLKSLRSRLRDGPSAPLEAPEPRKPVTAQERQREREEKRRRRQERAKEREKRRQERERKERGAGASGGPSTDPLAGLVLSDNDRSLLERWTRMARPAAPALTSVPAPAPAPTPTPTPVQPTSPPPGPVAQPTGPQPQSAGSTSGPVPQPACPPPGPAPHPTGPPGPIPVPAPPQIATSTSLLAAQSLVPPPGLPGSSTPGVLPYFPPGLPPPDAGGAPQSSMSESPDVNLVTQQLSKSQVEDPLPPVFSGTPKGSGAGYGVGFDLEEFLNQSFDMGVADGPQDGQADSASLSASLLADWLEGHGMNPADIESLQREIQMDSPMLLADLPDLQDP

As for `Nc1cc(OC(F)(F)F)ccc1C(=O)N1CCC(c2c[nH]c3ncc([C@H]4CC[C@H](O)CC4)nc23)CC1`, the IC50 came out at 17 nM.

For the molecule `Nc1cc(OC(F)(F)F)ccc1C(=O)N1CCC(c2c[nH]c3ncc(C4CCOC4)nc23)CC1` (configuration not stated), the IC50 is 21 nM.

For orientation: IC50 means the point on the concentration scale where inhibition reaches its midpoint.
